Marks after values point to notes of the source that are not given here.
Test system: New Zealand White rabbits
Assay: Embryo-fetal developmental toxicity study in New Zealand White rabbits (Example 4);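 also: dams given a detailed clinical exam daily GD 6 to 29, about 4 h after dosing, then laparohysterectomy on GD 29 with external, visceral and skeletal fetal examination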

CC(C)NC(=O)COc1cccc(-c2nc(Nc3ccc4[nH]ncc4c3)c3ccccc3n2)c1 [belumosudil, 2-{3-[4-(1H-indazol-5-ylamino)-2-quinazolinyl]phenoxy}-N-(propan-2-yl) acetamide]
Fetal External Malformation: Short Tail, No. Fetuses (incidence) (50 mg base/kg/day): 0 (0.0)
Fetal External Malformation: Short Tail, No. Litters (incidence) (50 mg base/kg/day): 0 (0.0)
Fetal External Malformations, No. Fetuses (incidence) (50 mg base/kg/day): 1 (0.5)
Fetal External Malformations, No. Litters (incidence) (50 mg base/kg/day): 1 (4.5)
Fetal Skeletal Malformations, No. Fetuses (incidence) (50 mg base/kg/day): 8 (4.3)
Fetal Skeletal Malformations, No. Litters (incidence) (50 mg base/kg/day): 6 (27.3)
Fetal Visceral Variations, No. Fetuses (incidence) (50 mg base/kg/day): 6 (3.2)
Fetal Visceral Variations, No. Litters (incidence) (50 mg base/kg/day): 4 (18.2)
Maternal Food Consumption GD 0-29 (50 mg base/kg/day): 141.1
Maternal Food Consumption GD 6-10 (50 mg base/kg/day): 149.4
Maternal Food Consumption GD 6-19 (50 mg base/kg/day): 142.7
Maternal Food Consumption GD 6-19, % Difference From Control (50 mg base/kg/day): −8.8%
Maternal Food Consumption GD 19-29 (50 mg base/kg/day): 136.0
Mean Fetal Body Weight Females (50 mg base/kg/day): 40.25 g
Mean Fetal Body Weight Genders Combined (50 mg base/kg/day): 40.97 g
Mean Fetal Body Weight Males (50 mg base/kg/day): 41.64 g
Mean Live Litter Size (50 mg base/kg/day): 8.5
Mean Number of Early Resorptions (50 mg base/kg/day): 0.2
Mean Number of Resorptions (Combined) (50 mg base/kg/day): 0.2
Mean Postimplantation Loss (50 mg base/kg/day): 2.42 %/Litter
Number Litters with Viable Fetuses GD29 (50 mg base/kg/day): 22
Number with All Resorptions GD29 (50 mg base/kg/day): 0
Number Aborted (50 mg base/kg/day, 23 females): 0
Number Litters with Viable Fetuses GD29 (50 mg base/kg/day, 23 females): 22
Number Not Pregnant (50 mg base/kg/day, 23 females): 1
Number with All Resorptions GD29 (50 mg base/kg/day, 23 females): 0
Activity decreased, times observed/animals affected (50 mg base/kg/day, GD 0-29): 0/0
Feces few/absent, times observed/animals affected (50 mg base/kg/day, GD 0-29): 0/0
Hair discolored, Brown, Anogenital region, times observed/animals affected (50 mg base/kg/day, GD 0-29): 0/0
Hair discolored, Brown, Ear/left, times observed/animals affected (50 mg base/kg/day, GD 0-29): 12/1
Hair discolored, Brown, Ear/right, times observed/animals affected (50 mg base/kg/day, GD 0-29): 12/1
Hair discolored, Brown, Face, times observed/animals affected (50 mg base/kg/day, GD 0-29): 24/3
Hair discolored, Brown, Hind limb/left, times observed/animals affected (50 mg base/kg/day, GD 0-29): 3/1
Hair discolored, Red, Anogenital region, times observed/animals affected (50 mg base/kg/day, GD 0-29): 0/0
Hair discolored, Red, Face, times observed/animals affected (50 mg base/kg/day, GD 0-29): 0/0
Hair discolored, Red, Forelimb/left, times observed/animals affected (50 mg base/kg/day, GD 0-29): 1/1
Hair discolored, Red, Thoracic region, times observed/animals affected (50 mg base/kg/day, GD 0-29): 1/1
Hair discolored, Yellow, Ear/right, times observed/animals affected (50 mg base/kg/day, GD 0-29): 0/0
Hair discolored, Yellow, Face, times observed/animals affected (50 mg base/kg/day, GD 0-29): 27/2
Hair sparse, Anogenital region, times observed/animals affected (50 mg base/kg/day, GD 0-29): 0/0
Hair sparse, Axillary region/left, times observed/animals affected (50 mg base/kg/day, GD 0-29): 0/0
Hair sparse, Axillary region/right, times observed/animals affected (50 mg base/kg/day, GD 0-29): 0/0
Hair sparse, Cervical region, times observed/animals affected (50 mg base/kg/day, GD 0-29): 0/0
Hair sparse, Ear/left, times observed/animals affected (50 mg base/kg/day, GD 0-29): 0/0
Hair sparse, Ear/right, times observed/animals affected (50 mg base/kg/day, GD 0-29): 0/0
Hair sparse, Forefoot/left, times observed/animals affected (50 mg base/kg/day, GD 0-29): 5/1
Hair sparse, Forefoot/right, times observed/animals affected (50 mg base/kg/day, GD 0-29): 4/1
Hair sparse, Forelimb/left, times observed/animals affected (50 mg base/kg/day, GD 0-29): 5/1
Hair sparse, Hind limb/left, times observed/animals affected (50 mg base/kg/day, GD 0-29): 5/1
Hair sparse, Inguinal region/right, times observed/animals affected (50 mg base/kg/day, GD 0-29): 0/0
Hair sparse, Shoulder/left, times observed/animals affected (50 mg base/kg/day, GD 0-29): 0/0
Hair sparse, Thoracic region, times observed/animals affected (50 mg base/kg/day, GD 0-29): 0/0
Hair sparse, Ventral surface, times observed/animals affected (50 mg base/kg/day, GD 0-29): 0/0
Material in pan/bedding, Red, times observed/animals affected (50 mg base/kg/day, GD 0-29): 0/0
Nail missing, Forefoot/left, times observed/animals affected (50 mg base/kg/day, GD 0-29): 1/1
Scabbed area, Ear/left, times observed/animals affected (50 mg base/kg/day, GD 0-29): 0/0
Scabbed area, Nose/muzzle, times observed/animals affected (50 mg base/kg/day, GD 0-29): 0/0
Skin discolored, Pale, Entire body, times observed/animals affected (50 mg base/kg/day, GD 0-29): 0/0
Swelling, Nose/muzzle, times observed/animals affected (50 mg base/kg/day, GD 0-29): 0/0
Swelling, Vulva, times observed/animals affected (50 mg base/kg/day, GD 0-29): 3/1
Thin, times observed/animals affected (50 mg base/kg/day, GD 0-29): 0/0
Fetal External Malformation: Short Tail, No. Fetuses (incidence) (125 mg base/kg/day): 0 (0.0)
Fetal External Malformation: Short Tail, No. Litters (incidence) (125 mg base/kg/day): 0 (0.0)
Fetal External Malformations, No. Fetuses (incidence) (125 mg base/kg/day): 0 (0.0)
Fetal External Malformations, No. Litters (incidence) (125 mg base/kg/day): 0 (0.0)
Fetal Skeletal Malformations, No. Fetuses (incidence) (125 mg base/kg/day): 10 (6.6)
Fetal Skeletal Malformations, No. Litters (incidence) (125 mg base/kg/day): 6 (31.6)
Fetal Visceral Variations, No. Fetuses (incidence) (125 mg base/kg/day): 11 (7.2)
Fetal Visceral Variations, No. Litters (incidence) (125 mg base/kg/day): 7 (36.8)
Maternal Body Weight Change GD 0-29, % Difference From Control (125 mg base/kg/day): −8.6%
Maternal Body Weight GD 19, % Difference From Control (125 mg base/kg/day): −5.1%
Maternal Food Consumption GD 0-29 (125 mg base/kg/day): 128.8
Maternal Food Consumption GD 0-29, % Difference From Control (125 mg base/kg/day): −11.6%
Maternal Food Consumption GD 6-10 (125 mg base/kg/day): 117.9^b
Maternal Food Consumption GD 6-19 (125 mg base/kg/day): 103.1
Maternal Food Consumption GD 6-19, % Difference From Control (125 mg base/kg/day): −34.1%
Maternal Food Consumption GD 19-29 (125 mg base/kg/day): 149.9^a
Mean Fetal Body Weight Females (125 mg base/kg/day): 41.14 g
Mean Fetal Body Weight Genders Combined (125 mg base/kg/day): 41.09 g
Mean Fetal Body Weight Males (125 mg base/kg/day): 41.61 g
Mean Live Litter Size (125 mg base/kg/day): 8.0
Mean Number of Early Resorptions (125 mg base/kg/day): 0.5
Mean Number of Resorptions (Combined) (125 mg base/kg/day): 0.7
Mean Postimplantation Loss (125 mg base/kg/day): 7.42 %/Litter
Number Litters with Viable Fetuses GD29 (125 mg base/kg/day): 19
Number with All Resorptions GD29 (125 mg base/kg/day): 0
ureter malpositioned, litter incidence (125 mg base/kg/day): 21.1%
Number Aborted (125 mg base/kg/day, 23 females): 1
Number Litters with Viable Fetuses GD29 (125 mg base/kg/day, 23 females): 19
Number Not Pregnant (125 mg base/kg/day, 23 females): 3
Number with All Resorptions GD29 (125 mg base/kg/day, 23 females): 0
Activity decreased, times observed/animals affected (125 mg base/kg/day, GD 0-29): 0/0
Feces few/absent, times observed/animals affected (125 mg base/kg/day, GD 0-29): 0/0
Hair discolored, Brown, Anogenital region, times observed/animals affected (125 mg base/kg/day, GD 0-29): 7/1
Hair discolored, Brown, Ear/left, times observed/animals affected (125 mg base/kg/day, GD 0-29): 0/0
Hair discolored, Brown, Ear/right, times observed/animals affected (125 mg base/kg/day, GD 0-29): 0/0
Hair discolored, Brown, Face, times observed/animals affected (125 mg base/kg/day, GD 0-29): 0/0
Hair discolored, Brown, Hind limb/left, times observed/animals affected (125 mg base/kg/day, GD 0-29): 0/0
Hair discolored, Red, Anogenital region, times observed/animals affected (125 mg base/kg/day, GD 0-29): 1/1
Hair discolored, Red, Face, times observed/animals affected (125 mg base/kg/day, GD 0-29): 2/1
Hair discolored, Red, Forelimb/left, times observed/animals affected (125 mg base/kg/day, GD 0-29): 0/0
Hair discolored, Red, Thoracic region, times observed/animals affected (125 mg base/kg/day, GD 0-29): 0/0
Hair discolored, Yellow, Ear/right, times observed/animals affected (125 mg base/kg/day, GD 0-29): 0/0
Hair discolored, Yellow, Face, times observed/animals affected (125 mg base/kg/day, GD 0-29): 10/1
Hair sparse, Anogenital region, times observed/animals affected (125 mg base/kg/day, GD 0-29): 15/2
Hair sparse, Axillary region/left, times observed/animals affected (125 mg base/kg/day, GD 0-29): 2/1
Hair sparse, Axillary region/right, times observed/animals affected (125 mg base/kg/day, GD 0-29): 2/1
Hair sparse, Cervical region, times observed/animals affected (125 mg base/kg/day, GD 0-29): 1/1
Hair sparse, Ear/left, times observed/animals affected (125 mg base/kg/day, GD 0-29): 0/0
Hair sparse, Ear/right, times observed/animals affected (125 mg base/kg/day, GD 0-29): 0/0
Hair sparse, Forefoot/left, times observed/animals affected (125 mg base/kg/day, GD 0-29): 0/0
